# Source: paper PMC11477294, “In Vitro Profiling of the Antiviral Peptide TAT-I24” (International Journal of Molecular Sciences, 2024)
# Where a SMILES comes first, the peptide text is derived from it.
# Tested on: MCMV m123/ie-1 transcript
# Experiment: m123/ie-1 transcript qPCR in MCMV-infected NIH/3T3 cells
# Format: cell-based, mouse cytomegalovirus
# Conditions: MCMV MOI 1, two hours post-infection, duplicate treatments
# Experimental: NIH/3T3 cells were seeded at a density of 2 × 10^4 cells/250 µL per well in a 48-well plate and allowed to attach overnight at 37 °C. On the next day, cells were treated with peptides at the indicated concentrations and infected with MCMV at an MOI of 1 with the aid of centrifugal enhancement, twice at 800× g for 15 min. Cells were then returned to 37 °C for two hours before cell lysis for further processing. RNA isolation, DNase digestion, cDNA reaction and qPCR were performed, as described previously.
smiles,measurement,setting,value
CC(C)C[C@H](NC(=O)[C@H](CS)NC(=O)[C@H](CCC(N)=O)NC(=O)[C@@H]1CCCN1C(=O)[C@@H]1CCCN1C(=O)[C@H](CCCNC(=N)N)NC(=O)[C@H](CCCNC(=N)N)NC(=O)[C@H](CCCNC(=N)N)NC(=O)[C@H](CCC(N)=O)NC(=O)[C@H](CCCNC(=N)N)NC(=O)[C@H](CCCNC(=N)N)NC(=O)[C@H](CCCCN)NC(=O)[C@H](CCCCN)NC(=O)[C@H](CCCNC(=N)N)NC(=O)CN)C(=O)N[C@@H](C)C(=O)N[C@@H](Cc1ccccc1)C(=O)N[C@@H](Cc1ccc(O)cc1)C(=O)N[C@@H](C)C(=O)N[C@@H](CS)C(=O)N[C@@H](Cc1ccccc1)C(=O)N[C@@H](CS)C(=O)O [TAT-I24] (H-GRKKRRQRRRPPQCLAFYACFC-OH),m123/ie-1 transcript levels relative to infected cells without peptides,1 µM peptide,significantly reduced
same,m123/ie-1 transcript levels relative to infected cells without peptides,10 µM peptide,significantly reduced
